In ChEMBL document CHEMBL5726876, “NHE3-binding compounds and methods for inhibiting phosphate transport” (2019):

Assay: Cell-based activity under Prompt Conditions: Cell-based activity under Prompt Conditions. Rat or human NHE3-mediated Na+-dependent H+ antiport was measured using a modification of the pH sensitive dye method originally reported by Paradiso (PNAS USA. 81:7436-7440, 1984). Opossum kidney (OK) cells were obtained from the ATCC and propagated per their instructions. The rat NHE3 gene (GenBank M85300) or the human NHE3 gene (GenBank NM_004174.1) was introduced into OK cells via electroporation, and cells were seeded into 96 well plates and grown overnight. Medium was aspirated from the wells, cells were washed twice with NaCl-HEPES buffer (100 mM NaCl, 50 mM HEPES, 10 mM glucose, 5 mM KCl, 2 mM CaCl2, 1 mM MgCl2, pH 7.4), then incubated for 30 min at room temperature with NH4Cl-HEPES buffer (20 mM NH4Cl, 80 mM NaCl, 50 mM HEPES, 5 mM KCl, 2 mM CaCl2, 1 mM MgCl2, pH 7.4) containing 5 μM bis(acetoxymethyl) 3,3′-(3′,6′-bis(acetoxymethoxy)-5-((acetoxymethoxy)carbonyl)-3-oxo-3H-spiro[isobenzofuran-1,9′-xanthene]-2′,7′-diyl)dipropanoate (BCECF-AM).Cells were washed twice with Ammonium free, Na+-free HEPES (100 mM choline, 50 mM HEPES, 10 mM glucose, 5 mM KCl, 2 mM CaCl2, 1 mM MgCl2, pH 7.4) and incubated in the same buffer for 10 minutes at room temperature to lower intracellular pH. […] Initial rates were plotted as the average 2 or more replicates, and pIC50 values were estimated using GraphPad Prism.

Compound	IC50 [µM]
CN(C)[C@H]1Cc2c(Cl)cc(Cl)cc2[C@@H]1Oc1ccc(S(=O)(=O)NCCOCCOCCNC(=O)[C@H](O)[C@@H](O)C(=O)NCCOCCOCCNS(=O)(=O)c2ccc(O[C@H]3c4cc(Cl)cc(Cl)c4C[C@@H]3N(C)C)cc2)cc1	0.00251
N=C(N)Nc1nc(-c2ccc(N3CCN(CCOCCOCCOCCNC(=O)NCCOCCOCCNC(=O)NCCOCCOCCOCCN4CCN(c5ccc(-c6nc(NC(=N)N)nc7ccc(Cl)cc67)cc5)CC4)CC3)cc2)c2cc(Cl)ccc2n1	0.0501
CN1Cc2c(Cl)cc(Cl)cc2C(c2cccc(S(=O)(=O)NCCOCCOCCOCCNC(=O)CCN(CCC(=O)NCCOCCOCCOCCNS(=O)(=O)c3cccc([C@@H]4CN(C)Cc5c(Cl)cc(Cl)cc54)c3)CCC(=O)NCCOCCOCCOCCNS(=O)(=O)c3cccc([C@@H]4CN(C)Cc5c(Cl)cc(Cl)cc54)c3)c2)C1 (stereo partly drawn)	0.316
CCOCCOCCOCCNC(=O)NCCCCNC(=O)NCCOCCOCCOCCNS(=O)(=O)c1ccc(O[C@H]2c3ccccc3C[C@@H]2N2CCCCC2)cc1	0.0398
CN1Cc2c(Cl)cc(Cl)cc2[C@H](c2cccc(S(=O)(=O)NCCOCCOCCOCCNC(=O)CN3CCN(c4nc(N5CCN(CC(=O)NCCOCCOCCOCCNS(=O)(=O)c6cccc([C@@H]7CN(C)Cc8c(Cl)cc(Cl)cc87)c6)CC5)nc(N5CCN(CC(=O)NCCOCCOCCOCCNS(=O)(=O)c6cccc([C@@H]7CN(C)Cc8c(Cl)cc(Cl)cc87)c6)CC5)n4)CC3)c2)C1	0.251
CN(C)[C@H]1Cc2c(Cl)cc(Cl)cc2[C@@H]1Oc1ccc(S(=O)(=O)NCCOCCOCCNC(=O)Nc2ccc(NC(=O)NCCOCCOCCNS(=O)(=O)c3ccc(O[C@H]4c5cc(Cl)cc(Cl)c5C[C@@H]4N(C)C)cc3)cc2)cc1	< 10
CN(C)[C@H]1Cc2ccccc2[C@@H]1Oc1ccc(S(=O)(=O)NCCOCCOCCNC(=O)NCCCCNC(=O)NCCOCCOCCNS(=O)(=O)c2ccc(O[C@H]3c4ccccc4C[C@@H]3N(C)C)cc2)cc1	< 10
CCC(=O)NC(CCC(=O)NCCOCCOCCOCCNS(=O)(=O)c1cccc([C@@H]2CN(C)Cc3c(Cl)cc(Cl)cc32)c1)(CCC(=O)NCCOCCOCCOCCNS(=O)(=O)c1cccc([C@@H]2CN(C)Cc3c(Cl)cc(Cl)cc32)c1)CCC(=O)NCCOCCOCCOCCNS(=O)(=O)c1cccc([C@@H]2CN(C)Cc3c(Cl)cc(Cl)cc32)c1	0.0794
CN1Cc2c(Cl)cc(Cl)cc2[C@H](c2cccc(S(=O)(=O)NCCOCCOCCOCCNC(=O)CN(CCN(CC(=O)NCCOCCOCCOCCNS(=O)(=O)c3cccc([C@@H]4CN(C)Cc5c(Cl)cc(Cl)cc54)c3)CC(=O)NCCOCCOCCOCCNS(=O)(=O)c3cccc([C@@H]4CN(C)Cc5c(Cl)cc(Cl)cc54)c3)CCN(CC(=O)NCCOCCOCCOCCNS(=O)(=O)c3cccc([C@@H]4CN(C)Cc5c(Cl)cc(Cl)cc54)c3)CC(=O)NCCOCCOCCOCCNS(=O)(=O)c3cccc([C@@H]4CN(C)Cc5c(Cl)cc(Cl)cc54)c3)c2)C1	0.501
CN1Cc2c(Cl)cc(Cl)cc2[C@H](c2cccc(S(=O)(=O)NCCOCCOCCOCCNC(=O)NCCN3CCN(c4nc(N5CCN(CCNC(=O)NCCOCCOCCOCCNS(=O)(=O)c6cccc([C@@H]7CN(C)Cc8c(Cl)cc(Cl)cc87)c6)CC5)nc(N5CCN(CCNC(=O)NCCOCCOCCOCCNS(=O)(=O)c6cccc([C@@H]7CN(C)Cc8c(Cl)cc(Cl)cc87)c6)CC5)n4)CC3)c2)C1	0.2
CCCCCCCCOCCOCCOCCOCCOCCOC(=O)NCCOCCOCCOCCNS(=O)(=O)c1cccc([C@@H]2CN(C)Cc3c(Cl)cc(Cl)cc32)c1	0.251
CN1Cc2c(Cl)cc(Cl)cc2[C@H](c2cccc(S(=O)(=O)N(C)CCOCCOCCNC(=O)NCCCN(CCCNC(=O)NCCOCCOCCN(C)S(=O)(=O)c3cccc([C@@H]4CN(C)Cc5c(Cl)cc(Cl)cc54)c3)CCCNC(=O)NCCOCCOCCN(C)S(=O)(=O)c3cccc([C@@H]4CN(C)Cc5c(Cl)cc(Cl)cc54)c3)c2)C1	0.1
CN1Cc2c(Cl)cc(Cl)cc2[C@H](c2cccc(S(=O)(=O)N(CCO)CCOCCOCCNC(=O)NCCCN(CCCNC(=O)NCCOCCOCCN(CCO)S(=O)(=O)c3cccc([C@@H]4CN(C)Cc5c(Cl)cc(Cl)cc54)c3)CCCNC(=O)NCCOCCOCCN(CCO)S(=O)(=O)c3cccc([C@@H]4CN(C)Cc5c(Cl)cc(Cl)cc54)c3)c2)C1	0.0158
CCOCCOCCOCCNC(=O)CN(C)CC(=O)NCCOCCOCCOCCNS(=O)(=O)c1ccc(O[C@H]2c3ccccc3C[C@@H]2N2CCCCC2)cc1	0.0447
CN1Cc2c(Cl)cc(Cl)cc2[C@H](c2cccc(S(=O)(=O)NCCOCCOCCOCCNC(=O)CC(CC(=O)NCCOCCOCCOCCNS(=O)(=O)c3cccc([C@@H]4CN(C)Cc5c(Cl)cc(Cl)cc54)c3)C(=O)NCCOCCOCCOCCNS(=O)(=O)c3cccc([C@@H]4CN(C)Cc5c(Cl)cc(Cl)cc54)c3)c2)C1	0.0316
COCCNC(=O)CN(C)CC(=O)NCCOCCOCCNC(=O)NCCOCCOCCOCCN1CCN(c2ccc(-c3nc(N=C(N)N)nc4ccc(Cl)cc34)cc2)CC1	0.0316
CCOCCOCCOCCOCCC(=O)NCCOCCOCCNS(=O)(=O)c1ccc(OC2c3ccccc3C[C@@H]2N2CCCCC2)cc1 (stereo partly drawn)	0.0501

Compound	IC50 [µM]
CN1Cc2c(Cl)cc(Cl)cc2[C@H](c2cccc(S(=O)(=O)NCCOCCOCCNC(=O)CC(O)(CC(=O)NCCOCCOCCNS(=O)(=O)c3cccc([C@@H]4CN(C)Cc5c(Cl)cc(Cl)cc54)c3)C(=O)NCCOCCOCCNS(=O)(=O)c3cccc([C@@H]4CN(C)Cc5c(Cl)cc(Cl)cc54)c3)c2)C1	1
CN1Cc2c(Cl)cc(Cl)cc2[C@H](c2cccc(S(=O)(=O)NCCOCCOCCNC(=O)NCCCC(CCCNC(=O)NCCOCCOCCNS(=O)(=O)c3cccc([C@@H]4CN(C)Cc5c(Cl)cc(Cl)cc54)c3)(CCCNC(=O)NCCOCCOCCNS(=O)(=O)c3cccc([C@@H]4CN(C)Cc5c(Cl)cc(Cl)cc54)c3)NC(=O)COCC(=O)O)c2)C1	0.000631
NC(N)=Nc1nc(-c2ccc(N3CCN(CCOCCOCCNC(=O)[C@H](O)[C@@H](O)C(=O)NCCOCCOCCN4CCN(c5ccc(-c6nc(N=C(N)N)nc7ccc(Cl)cc67)cc5)CC4)CC3)cc2)c2cc(Cl)ccc2n1	0.0794
CN1Cc2c(Cl)cc(Cl)cc2[C@H](c2cccc(S(=O)(=O)NCCOCCOCCNC(=O)CCC(CCC(=O)NCCOCCOCCNS(=O)(=O)c3cccc([C@@H]4CN(C)Cc5c(Cl)cc(Cl)cc54)c3)(CCC(=O)NCCOCCOCCNS(=O)(=O)c3cccc([C@H]4c5cc(Cl)cc(Cl)c5CCN4C)c3)NC(=O)N[C@@H](CC(=O)O)C(=O)O)c2)C1	0.0251
O=C(NCCOCCOCCOCCNS(=O)(=O)c1ccc(O[C@H]2c3ccccc3C[C@@H]2N2CCCCC2)cc1)c1ccc(C(=O)NCCOCCOCCOCCNS(=O)(=O)c2ccc(O[C@H]3c4ccccc4C[C@@H]3N3CCCCC3)cc2)cc1	0.0316
CN1Cc2c(Cl)cc(Cl)cc2[C@H](c2cccc(S(=O)(=O)NCCOCCOCCNC(=O)NCCC[N+](C)(CCCNC(=O)NCCOCCOCCNS(=O)(=O)c3cccc([C@@H]4CN(C)Cc5c(Cl)cc(Cl)cc54)c3)CCCNC(=O)NCCOCCOCCNS(=O)(=O)c3cccc([C@@H]4CN(C)Cc5c(Cl)cc(Cl)cc54)c3)c2)C1	0.0398
COCCNC(=O)CN(C)CC(=O)NCCOCCOCCNC(=O)NCCOCCOCCOCCN1CCN(c2cccc(-c3nc(NC(=N)N)nc4ccc(Cl)cc34)c2)CC1	0.02
O=C(NCCOCCOCCOCCNS(=O)(=O)c1ccc(O[C@H]2c3ccccc3C[C@@H]2N2CCCCC2)cc1)c1cccc(C(=O)NCCOCCOCCOCCNS(=O)(=O)c2ccc(O[C@H]3c4ccccc4C[C@@H]3N3CCCCC3)cc2)c1	0.0398
O=C(NCCCCNC(=O)NCCOCCOCCNS(=O)(=O)c1ccc(O[C@H]2c3cc(Cl)cc(Cl)c3C[C@@H]2N2CC[C@@H](O)C2)cc1)NCCOCCOCCNS(=O)(=O)c1ccc(O[C@H]2c3cc(Cl)cc(Cl)c3C[C@@H]2N2CC[C@@H](O)C2)cc1	< 10
CN1Cc2c(Cl)cc(Cl)cc2[C@H](c2cccc(S(=O)(=O)NCCOCCOCCNC(=O)NCCC(N)(CCNC(=O)NCCOCCOCCNS(=O)(=O)c3cccc([C@@H]4CN(C)Cc5c(Cl)cc(Cl)cc54)c3)CCNC(=O)NCCOCCOCCNS(=O)(=O)c3cccc([C@@H]4CN(C)Cc5c(Cl)cc(Cl)cc54)c3)c2)C1	0.0447
CN1Cc2c(Cl)cc(Cl)cc2[C@H](c2cccc(S(=O)(=O)NCCOCCOCCOCCNC(=O)COCC(=O)NCCOCCOCCOc3cccc(-c4nc(NC(=N)N)nc5ccc(Cl)cc45)c3)c2)C1	0.141
CN(C)CC(=O)NC(CCC(=O)N(C)CCOCCOCCNS(=O)(=O)c1cccc([C@@H]2CN(C)Cc3c(Cl)cc(Cl)cc32)c1)(CCC(=O)N(C)CCOCCOCCNS(=O)(=O)c1cccc([C@@H]2CN(C)Cc3c(Cl)cc(Cl)cc32)c1)CCC(=O)N(C)CCOCCOCCNS(=O)(=O)c1cccc([C@@H]2CN(C)Cc3c(Cl)cc(Cl)cc32)c1	0.0316
C/C(=C\c1cc(F)c(Oc2ccc(S(=O)(=O)NCCOCCOCCOCCNC(=O)NCCOCCOCCNC(=O)NCCOCCOCCOCCNS(=O)(=O)c3ccc(Oc4c(F)cc(/C=C(\C)C(=O)N=C(N)N)cc4F)cc3)cc2)c(F)c1)C(=O)N=C(N)N	0.1
CN1Cc2c(Cl)cc(Cl)cc2[C@H](c2cccc(S(=O)(=O)NCCOCCOCCNC(=O)CCC(CCC(=O)NCCOCCOCCNS(=O)(=O)c3cccc([C@@H]4CN(C)Cc5c(Cl)cc(Cl)cc54)c3)(CCC(=O)NCCOCCOCCNS(=O)(=O)c3cccc([C@@H]4CN(C)Cc5c(Cl)cc(Cl)cc54)c3)NC(=O)N(C)C)c2)C1	2.51
CN1Cc2c(Cl)cc(Cl)cc2[C@H](c2cccc(S(=O)(=O)NCCOCCOCCNC(=O)CCC(CCCNC(=O)NCCOCCOCCNS(=O)(=O)c3cccc([C@@H]4CN(C)Cc5c(Cl)cc(Cl)cc54)c3)(CCC(=O)NCCOCCOCCNS(=O)(=O)c3cccc([C@@H]4CN(C)Cc5c(Cl)cc(Cl)cc54)c3)NC(=O)NCP(=O)(O)O)c2)C1	0.0501
O=C(NCCCCNC(=O)NCCOCCOCCNS(=O)(=O)c1ccc(O[C@H]2c3cc(Cl)cc(Cl)c3C[C@@H]2N2CCCCC2)cc1)NCCOCCOCCNS(=O)(=O)c1ccc(O[C@H]2c3cc(Cl)cc(Cl)c3C[C@@H]2N2CCCCC2)cc1	< 10
